Experimental data as given in the supplement of paper PMC6045584.
± gives the standard deviation of the averaged measurements.

Assays:
ABIRATERONE = compound: C[C@]12CC[C@H](O)CC1=CC[C@@H]1[C@@H]2CC[C@]2(C)C(c3cccnc3)=CC[C@@H]12 [ABIRATERONE]; experiment: surviving fraction relative to DMSO-only wells; higher = less growth inhibition; details: exposure time: 5 days
Procedure, shortened: (§1)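 In 384-well plates, 250–500 log-phase tumour cells per well were given 24 hours before five days of continuous exposure to inhibitors at 0.5, 1, 5, 10, 50, 100, 500 and 1000 nM. Surviving fraction is luminescence from CellTiter-Glo, normalised to the median of wells containing DMSO alone. Reading took place after 10 minutes at room temperature.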

DASATINIB = compound: Cc1nc(Nc2ncc(C(=O)Nc3c(C)cccc3Cl)s2)cc(N2CCN(CCO)CC2)n1 [DASATINIB]; experiment: as above; details: exposure time: 5 days
Procedure, shortened: as §1

SG43 HEADNECK gave a surviving fraction (ABIRATERONE; 0.5 nM) of 1.23 ± 0.2, a surviving fraction (ABIRATERONE; 1 nM) of 1.1 ± 0.39 and a surviving fraction (ABIRATERONE; 5 nM) of 0.922 ± 0.036. The surviving fraction (ABIRATERONE; 10 nM) was 0.934 ± 0.21, the surviving fraction (ABIRATERONE; 50 nM) was 1.02 ± 0.51 and the surviving fraction (ABIRATERONE; 100 nM) was 0.995 ± 0.12. The surviving fraction (ABIRATERONE; 500 nM) was 0.967 ± 0.13, the surviving fraction (ABIRATERONE; 1000 nM) was 0.987 ± 0.2 and the surviving fraction (DASATINIB; 0.5 nM) was 0.98 ± 0.19. For the same test system, the surviving fraction (DASATINIB; 1 nM) was 1.02 ± 0.16, the surviving fraction (DASATINIB; 5 nM) was 0.592 ± 0.2 and the surviving fraction (DASATINIB; 10 nM) was 0.581 ± 0.2. It also gave a surviving fraction (DASATINIB; 50 nM) of 0.337 ± 0.078, a surviving fraction (DASATINIB; 100 nM) of 0.273 ± 0.13 and a surviving fraction (DASATINIB; 500 nM) of 0.206 ± 0.023. The surviving fraction (DASATINIB; 1000 nM) was 0.177 ± 0.054.

In the case of MDAMB134 BREAST, the surviving fraction (ABIRATERONE; 0.5 nM) is reported as 1.12 ± 0.043, the surviving fraction (ABIRATERONE; 1 nM) is reported as 0.896 ± 0.18 and the surviving fraction (ABIRATERONE; 5 nM) is reported as 1.36 ± 0.096. It also gave a surviving fraction (ABIRATERONE; 10 nM) of 0.943 ± 0.063, a surviving fraction (ABIRATERONE; 50 nM) of 1.12 ± 0.049 and a surviving fraction (ABIRATERONE; 100 nM) of 1.15 ± 0.37. For the same test system, the surviving fraction (ABIRATERONE; 500 nM) was 0.927 ± 0.13, the surviving fraction (ABIRATERONE; 1000 nM) was 0.965 ± 0.098 and the surviving fraction (DASATINIB; 0.5 nM) was 0.71 ± 0.023. It also gave a surviving fraction (DASATINIB; 1 nM) of 0.687 ± 0.0057, a surviving fraction (DASATINIB; 5 nM) of 0.531 ± 0.013 and a surviving fraction (DASATINIB; 10 nM) of 0.534 ± 0.096. The surviving fraction (DASATINIB; 50 nM) was 0.704 ± 0.018, the surviving fraction (DASATINIB; 100 nM) was 0.6445 ± 0.0035 and the surviving fraction (DASATINIB; 500 nM) was 0.635 ± 0.019. The surviving fraction (DASATINIB; 1000 nM) was 0.606 ± 0.0064.

In the case of SG27 HEADNECK, the surviving fraction (ABIRATERONE; 0.5 nM) is reported as 1.09 ± 0.064, the surviving fraction (ABIRATERONE; 1 nM) is reported as 0.971 ± 0.11 and the surviving fraction (ABIRATERONE; 5 nM) is reported as 1.05 ± 0.067. The surviving fraction (ABIRATERONE; 10 nM) was 0.927 ± 0.039, the surviving fraction (ABIRATERONE; 50 nM) was 0.867 ± 0.066 and the surviving fraction (ABIRATERONE; 100 nM) was 0.997 ± 0.08. It also gave a surviving fraction (ABIRATERONE; 500 nM) of 0.957 ± 0.14, a surviving fraction (ABIRATERONE; 1000 nM) of 0.985 ± 0.07 and a surviving fraction (DASATINIB; 0.5 nM) of 0.939 ± 0.12. It also gave a surviving fraction (DASATINIB; 1 nM) of 1.01 ± 0.035, a surviving fraction (DASATINIB; 5 nM) of 0.889 ± 0.15 and a surviving fraction (DASATINIB; 10 nM) of 0.736 ± 0.013. It also gave a surviving fraction (DASATINIB; 50 nM) of 0.531 ± 0.0053, a surviving fraction (DASATINIB; 100 nM) of 0.42 ± 0.038 and a surviving fraction (DASATINIB; 500 nM) of 0.35 ± 0.059. It also gave a surviving fraction (DASATINIB; 1000 nM) of 0.369 ± 0.064.

With OS25HAL BONE the surviving fraction (ABIRATERONE; 0.5 nM) was 1.02 ± 0.02, the surviving fraction (ABIRATERONE; 1 nM) was 1.01 ± 0.011 and the surviving fraction (ABIRATERONE; 5 nM) was 1.039 ± 0.0055. For the same test system, the surviving fraction (ABIRATERONE; 10 nM) was 0.989 ± 0.021, the surviving fraction (ABIRATERONE; 50 nM) was 1.106 ± 0.0096 and the surviving fraction (ABIRATERONE; 100 nM) was 1.08 ± 0.017. It also gave a surviving fraction (ABIRATERONE; 500 nM) of 1.07 ± 0.053, a surviving fraction (ABIRATERONE; 1000 nM) of 1.07 ± 0.034 and a surviving fraction (DASATINIB; 0.5 nM) of 0.88 ± 0.03. It also gave a surviving fraction (DASATINIB; 1 nM) of 0.849 ± 0.013, a surviving fraction (DASATINIB; 5 nM) of 0.849 ± 0.035 and a surviving fraction (DASATINIB; 10 nM) of 0.747 ± 0.035. It also gave a surviving fraction (DASATINIB; 50 nM) of 0.686 ± 0.05, a surviving fraction (DASATINIB; 100 nM) of 0.599 ± 0.074 and a surviving fraction (DASATINIB; 500 nM) of 0.45 ± 0.073. The surviving fraction (DASATINIB; 1000 nM) was 0.363 ± 0.045.

With NY BONE the surviving fraction (ABIRATERONE; 0.5 nM) was 1.05 ± 0.021, the surviving fraction (ABIRATERONE; 1 nM) was 1.06 ± 0.029 and the surviving fraction (ABIRATERONE; 5 nM) was 1.08 ± 0.034. For the same test system, the surviving fraction (ABIRATERONE; 10 nM) was 1.1 ± 0.059, the surviving fraction (ABIRATERONE; 50 nM) was 1.105 ± 0.011 and the surviving fraction (ABIRATERONE; 100 nM) was 1.09 ± 0.032. It also gave a surviving fraction (ABIRATERONE; 500 nM) of 1.08 ± 0.027, a surviving fraction (ABIRATERONE; 1000 nM) of 1.06 ± 0.028 and a surviving fraction (DASATINIB; 0.5 nM) of 0.9257 ± 0.0085. The surviving fraction (DASATINIB; 1 nM) was 0.881 ± 0.011, the surviving fraction (DASATINIB; 5 nM) was 0.828 ± 0.015 and the surviving fraction (DASATINIB; 10 nM) was 0.753 ± 0.018. It also gave a surviving fraction (DASATINIB; 50 nM) of 0.471 ± 0.018, a surviving fraction (DASATINIB; 100 nM) of 0.366 ± 0.031 and a surviving fraction (DASATINIB; 500 nM) of 0.288 ± 0.012. It also gave a surviving fraction (DASATINIB; 1000 nM) of 0.263 ± 0.027.
